Results: US20100130581A1, “COMPOUNDS AND METHODS FOR THE TREATMENT OF PAIN” (THE UNIVERSITY OF QUEENSLAND, priority 2006, published 2010)
Entries after “also recorded” stand apart in the source; their conditions may differ. Where a SMILES comes first, the peptide text is derived from it. [ ]: non-standard residue; d: D form. ξ: configuration not given here. Dmt = Cc1cc(O)cc(C)c1C[C@H](N)C(=O)O; ξGly(decyl) = CCCCCCCCCCC(N)C(=O)O; ξGly(octyl) = CCCCCCCCC(N)C(=O)O; ξAoc(2) = CCCCCCC(N)C(=O)O

Legend:
[1] = tested on: homogenate of Caco-2 cells; test: Enzymatic stability study in homogenized Caco-2 cells; assay type: in vitro ADME; conditions: Caco-2 cell line; graded by number of ♦ (up to 5), key not given
Protocol: Approximately 1×10^5 cells/mL concentration of cells were seeded onto the 96 well plate. […] The media was changed every other day. 21-28 days old cells were used for the experiments. the media was removed from the wells and each well washed with 100 μL 0.2% EDTA solution followed by washing three times with Hanks' balanced salt solution (HBSS) containing 25 mM Hepes (pH 7.4). Finally, 100 μL of this buffer was placed in each well and the plate cooled in ice. The monolayer of cells in each well was then disrupted by 2×1 second pulses with a Sonics Vibracell ultrasonic processor set at an amplitude of 30. The cell debris was then removed by centrifugation of the plate at 2000 rpm for 5 min. 80 μL cell homogenate supernatant of each well was then transferred to a clean 96 well plate, and 20 μL of HBSS-Hepes was added. Three of the wells' contents were set aside and assayed for total protein content using the Lowry assay. The compounds to be tested were dissolved in HBSS-Hepes buffer to a concentration of 200 μM.
This assay was performed at 37° C. […] The stability assay on each compound was conducted in triplicate and the concentrations averaged for each time point.

μ-opioid receptor = target: T1, μ-opioid receptor (Homo sapiens, UniProt P35372); test: Whole cell-based binding assay, displacement of 3H-DAMGO
T1 construct: SH-SY5Y cells endogenously expressing μ- and δ-opioid receptors; endogenous in cells; host or cells: SH-SY5Y cells
Protocol: Media was removed and cells were washed with PBS before pre-incubation in 300 μL of binding buffer. Binding studies were performed with 100 μL of appropriate concentrations of ^3H-labeled DAMGO (a selective μ-opioid receptor agonist) and 100 μL of competitor or blank in binding buffer at 37° C. for 60 min. Competition binding experiments were performed using […] of ^3H-labelled DAMGO in the absence or presence of increasing concentrations of unlabeled derivatised endomorphins or derivatised endomorphin analogs. A 1 μM excess of unlabelled DAMGO was used to determine non-specific binding. Following incubation, the cells were washed with PBS and recovered from culture plates using 500 μL of […] before transfer to scintillation vials. Liquid scintillation cocktail (Ultima Gold, Packard, Meriden, USA) was added to these vials for counting in a liquid scintillation analyser. Data are expressed as the mean±SEM of % specific binding of triplicate determinations performed on at least three independent plates of cells. Data were plotted using the one-site competition functions of the PRISM program (Graphpad Inc., San Diego, USA) (see FIGS. 1a, 1b and 7).

[2] = tested on: μ- and δ-opioid receptors; test: Cell based assay of cAMP inhibition in forskolin treated SH-SY5Y cells; conditions: for Inhibit c-AMP (%): SH-SY5Y cell line, normalised to the % of cAMP inhibition seen by native endomorphin-1; for IC50: Efficacy SH-SY5Y cell line
Protocol: SH-SY5Y cells endogenously expressing μ- and δ-opioid receptors were cultured (100 μl) in a 96 well-plate and incubated (usually overnight) until 80% confluent. Once cells were ready for assay, Endo-1, Endo-2 and derivatives/analogs were diluted in DMEM culture medium containing 30 μM forskolin. The diluted derivatised endomorphins or derivatised endomorphin analogs were then applied to separate wells for agonist studies and co-incubated for antagonist studies. Cells were incubated with derivatised endomorphins or derivatised endomorphin analogs at 37° C. for 30 minutes, medium was aspirated and cells were lysed using lysis buffer from a cAMP Biotrak EIA kit (Amersham, Buckinghamshire, UK). An anti-cAMP antibody was added to the lysate, and the mixture incubated at 4° C. for 2 hours followed by the addition of a cAMP peroxidase conjugate, and incubated at 4° C. for a further hour. A 3,3′5,5′-tetramethylbenzidine (TMB) substrate provided by the Biotrak EIA kit was then incubated with cell lysate for 1 hour and finally 1 […] was added to facilitate a colour change, which is proportional to the amount of cAMP captured. A cAMP standard curve from 0 to 3200 fmol was also generated concurrently. Plates were then read by a plate reader at 450 nm and compared back to the cAMP standard curve. All data are compared to the maximum cAMP response to forskolin and are represented as the mean+/−standard error of three experiments performed in triplicate. All data are plotted using PRISM program (GraphPad, San Diego, Calif.) (see FIGS. 2a and 2b).

Plasma stability assay = assay type: in vitro ADME; conditions: male, human, plasma at 37° C.
Protocol: To measure the enzymatic stability of endomorphin-1 analogs in plasma, blood was taken from a healthy volunteer and the blood was centrifuged at 1700 rpm for 30 minutes to remove blood cells. The plasma was placed into a water bath heated at 37° C. and Endomorphin-1 and analog was added to give final concentrations of 0.7 mg/mL. Samples were incubated for varying time periods between 0 and 180 minutes. 50 μL of sample was taken at each time-point and 75 μL of acetonitrile was added to quench any enzyme activity. The samples were then placed on ice and upon completion of the assay, all samples were centrifuged at 9000 rpm for 3 minutes to remove all precipitated plasma proteins. The amount of intact peptide remaining in the supernatent of each sample was determined using RP HPLC by measuring the area under the curve of the peak at the appropriate retention time compared to a standard curve of concentration for each peptide (see FIG. 8).

CCI-rats = test: Pain relief in CCI-rat model of neuropathic pain (von Frey paw withdrawal thresholds); assay type: in vivo
[3] = tested on: gastrointestinal motility; test: Gut motility study (charcoal meal); assay type: in vivo, rat; conditions: rats
Protocol: Each dose of Compound 8, morphine and vehicle was administered to naïve rats as a 100 μL i.v. bolus injection via an indwelling cannula surgically implanted into the jugular vein at least 12 h prior to dose administration. Rats were anaesthetised with 3% isoflurane: 97% oxygen inhalational anaesthetic. A 1 cm incision was made on the right ventral side of the trachea. Using blunt dissection, the jugular vein was exposed and a small incision made to allow cannula insertion. The cannula was inserted into the vein, its integrity assessed, and tied into place using sterile sutures. The wound was sutured, the cannula was exteriorised at the back of the neck and secured using a metal spring. The rats were kept warm during surgical recovery. Animals were housed singly for the remainder of the experimentation period. Rats were inspected regularly from the time of surgery with respect to exploring behaviour, body weight and water intake. No adverse signs from the surgery were observed.
Charcoal meal was prepared by mixing 10% charcoal and 5% arabic gum in distilled, deionised water. Each rat received a single oral gavage of charcoal meal. Thirty minutes later the animal was euthanised using CO2 asphyxiation and the intestine was removed and measured. The distance from the pyloric sphincter to the caudal end of the charcoal and the total distance of the small intestine to the distal part of the ileum were measured in cm. Gastrointestinal motility was determined as the distance traveled by the charcoal relative to the total length of the small intestine, expressed as a percentage.
Each rat received a single bolus i.v. dose of Compound 8, morphine or vehicle. Animals received either vehicle (n=5), morphine at 1 mg/kg (n=3), 2 mg/kg (n=5), 10 mg/kg (n=5) and 30 mg/kg (n=2) or Compound 8 at 0.3 mg/kg (n=3), 1 mg/kg (n=5), 3 mg/kg (n=4), and 10 mg/kg (n=3). Thirty minutes after i.v. dosing an oral gavage of charcoal meal was administered under light (50%:50% CO2:O2) anaesthesia. Thirty minutes later the animal was euthanised via CO2 asphyxiation and the intestine was removed and the distance moved by the charcoal meal was measured.
The intestine was measured for distance of charcoal meal traveled in the small intestine and total length of small intestine. The % distance of charcoal transit was assessed relative to the total length of the small intestine. % inhibition of gastrointestinal motility by morphine or Compound 8 was calculated by the following equation: [(average % charcoal transit in vehicle rats)−(% distance charcoal transit)×100]/(average % charcoal transit in vehicle rats).

T1 sequence (P35372 whole entry): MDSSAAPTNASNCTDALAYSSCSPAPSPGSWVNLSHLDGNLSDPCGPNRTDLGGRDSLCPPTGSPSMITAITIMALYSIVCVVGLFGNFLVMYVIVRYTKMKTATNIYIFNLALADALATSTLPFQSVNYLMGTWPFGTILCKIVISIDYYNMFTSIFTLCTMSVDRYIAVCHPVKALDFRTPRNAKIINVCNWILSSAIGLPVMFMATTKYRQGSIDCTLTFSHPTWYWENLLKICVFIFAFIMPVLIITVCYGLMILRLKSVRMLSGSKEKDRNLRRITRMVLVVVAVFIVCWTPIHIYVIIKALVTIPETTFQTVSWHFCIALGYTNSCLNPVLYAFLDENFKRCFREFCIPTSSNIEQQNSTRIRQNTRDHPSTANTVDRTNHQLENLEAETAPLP

SMILES: CCCCCCC(NC(=O)[C@H](Cc1ccccc1)NC(=O)[C@H](Cc1c[nH]c2ccccc12)NC(=O)[C@@H]1CCCN1C(=O)[C@@H](N)Cc1ccc(O)cc1)C(N)=O (some centres unmarked) [Compound 19] (H-YPWF[ξAoc(2)]-NH2)
- Enzymatic stability 2 h [1]: ♦

SMILES: CCCCCCCCCCC(N)C(=O)N[C@@H](Cc1ccc(O)cc1)C(=O)N1CCC[C@H]1C(=O)N[C@@H](Cc1c[nH]c2ccccc12)C(=O)N[C@@H](Cc1ccccc1)C(N)=O (some centres unmarked) [Compound 2] (H-[ξGly(decyl)]YPWF-NH2)
- Ki (μ-opioid receptor): 35.5 nM
- Inhibit c-AMP (%) [2]: 89%

SMILES: CCCCCCC(N)C(=O)N[C@@H](Cc1c(C)cc(O)cc1C)C(=O)N1CCC[C@H]1C(=O)N[C@@H](Cc1c[nH]c2ccccc12)C(=O)N[C@@H](Cc1ccccc1)C(N)=O (single isomer, unassigned) [Compound 7]
- Ki (μ-opioid receptor): 0.071 nM
- IC50 [2]: 0.189 nM
- Inhibit c-AMP (%) [2]: 153%
- half-life at 0.7 mg/mL (Plasma stability assay): 4.55 min

SMILES: CCCCCCCCCCC(N)C(=O)N[C@@H](Cc1c(C)cc(O)cc1C)C(=O)N1CCC[C@H]1C(=O)N[C@@H](Cc1c[nH]c2ccccc12)C(=O)N[C@@H](Cc1ccccc1)C(N)=O (some centres unmarked) [Compound 9] (H-[ξGly(decyl)][Dmt]PWF-NH2)
- Ki (μ-opioid receptor): 0.735 nM
- IC50 [2]: 0.928 nM
- half-life at 0.7 mg/mL (Plasma stability assay): 20.3 min

SMILES: CCCCCCCCC(N)C(=O)N[C@@H](Cc1c(C)cc(O)cc1C)C(=O)N1CCC[C@H]1C(=O)N[C@@H](Cc1c[nH]c2ccccc12)C(=O)N[C@@H](Cc1ccccc1)C(N)=O (some centres unmarked) [Compound 8] (H-[ξGly(octyl)][Dmt]PWF-NH2)
- Ki (μ-opioid receptor): 0.47 nM
- IC50 [2]: 0.0634 nM
- half-life at 0.7 mg/mL (Plasma stability assay): 41.4 min
- antinociception / baseline PWT responses, in words (CCI-rats; contralateral hindpaw, CCI-rats, i.v., Endo1 1 mg/kg, Compound 8 0.3-3 mg/kg): did not significantly alter baseline PWT responses; also recorded: no significant antinociception in the contralateral hindpaw
- baseline PWT responses, in words (CCI-rats; contralateral hindpaw, drug-naïve CCI-rats, i.v., Endo1 1.6 μmol/kg, Compound 8 1.2 μmol/kg): did not significantly alter baseline PWT responses
- anti-nociceptive effect, in words (CCI-rats; contralateral hindpaw, s.c., 0.3-3 mg/kg, vs vehicle): did not produce a significant, dose-dependent anti-nociceptive effect; also recorded: did not produce dose-dependent anti-nociceptive pain relief
- extent and duration of anti-allodynia compared with Endo1 (CCI-rats; drug-naïve CCI-rats, ipsilateral hindpaw, i.v.): significantly (p<0.05) larger extent and duration of anti-allodynia
- anti-allodynic effect, in words (CCI-rats; ipsilateral hindpaw, CCI-rats, single bolus i.v. doses, vs vehicle): significant, dose-dependent anti-allodynic effect; also recorded: dose-dependent relief of tactile allodynia
- anti-allodynic effect, in words (CCI-rats; ipsilateral hindpaw, CCI-rats, single bolus s.c. doses 0.1-10 mg/kg, vs vehicle): significant, dose-dependent anti-allodynic effect; also recorded: dose-dependent relief of tactile allodynia
- dose-normalised area under the anti-allodynic response versus time curve (AUC), in words (CCI-rats; ipsilateral hindpaw, i.v., CCI-rats, over 3 h): significantly greater (p<0.05) than that of both Endo1 and vehicle
- time of mean peak anti-allodynic response (CCI-rats; ipsilateral hindpaw, i.v., highest dose tested): ~0.5 h
- mean duration of action (CCI-rats; ipsilateral hindpaw, i.v., highest dose tested (3 mg/kg)): > 3 h
- mean duration of action (CCI-rats; ipsilateral hindpaw, i.v., lower doses (0.1 and 0.3 mg/kg)): 2 to 3 h
- time of mean peak anti-allodynic response (CCI-rats; ipsilateral hindpaw, i.v., over doses tested): 0.5 to 1 h
- time of mean peak anti-allodynic response (CCI-rats; ipsilateral hindpaw, s.c., 0.1-10 mg/kg): 0.5 to 1 h
- time of mean peak anti-allodynic response (CCI-rats; ipsilateral hindpaw, s.c., highest dose tested): ~0.5 h
- % inhibition of gastrointestinal transit, compared with i.v. morphine ([3]; i.v., 10 mg/kg): did not differ significantly (p>0.05)
- average gradient of log dose vs. % inhibition of gastrointestinal motility curve ([3]; single bolus i.v. doses, FIG. 15): lower than the average gradient for the curve corresponding to morphine
- inhibition of gastrointestinal motility, in words ([3]; single i.v. bolus, 0.3, 1, 3 and 10 mg/kg): inhibited gastrointestinal motility at all doses assessed

SMILES: CN1CC[C@]23c4c5ccc(O)c4O[C@H]2[C@@H](O)C=C[C@H]3[C@H]1C5 [morphine, reference compound]
- inhibition of gastrointestinal motility, in words ([3]; single i.v. bolus, 1 and 2 mg/kg): did not significantly (p>0.05) inhibit gastrointestinal motility
- inhibition of gastrointestinal transit, in words ([3]; single i.v. bolus, 10 and 30 mg/kg): significant (p<0.05) inhibition of gastrointestinal transit

SMILES: CCCCCCC(N)C=N[C@@H](Cc1ccc(O)cc1)C(=O)N1CCC[C@H]1C(=O)N[C@@H](Cc1c[nH]c2ccccc12)C(=O)N[C@@H](Cc1ccccc1)C(N)=O (some centres unmarked) [Compound 10]
- Ki (μ-opioid receptor): 42.4 nM
